Conditions: 343.14 K, Liquid, Vibrating tube method

CCCC(=O)OCC(COC(=O)CCC)(COC(=O)CCC)COC(=O)CCC [pentaerythritol tetrabutyrate]
Conditions	mass density [kg/m3]
773.4 kPa	1008.6
794.9 kPa	1008.7
818 kPa	1008.6
837.8 kPa	1008.5
863.2 kPa	1008.6
890.1 kPa	1008.8
913.7 kPa	1008.7
943.4 kPa	1008.7
969.3 kPa	1008.9
1002.1 kPa	1008.8
1036.5 kPa	1008.8
1072.5 kPa	1008.9
1104.2 kPa	1008.8
1144 kPa	1008.9
1187.1 kPa	1008.9
1225.3 kPa	1009
1274.2 kPa	1009
1324.7 kPa	1009
1369.5 kPa	1009.1
1428.4 kPa	1009.2
1489.8 kPa	1009.2
1539.7 kPa	1009.3
1615.7 kPa	1009.3
1656.6 kPa	1009.4
1676.8 kPa	1009.3
1697.6 kPa	1009.4
1715.3 kPa	1009.4
1736.3 kPa	1009.5
1758.3 kPa	1009.4
1780.4 kPa	1009.4
1799.6 kPa	1009.4
1823.1 kPa	1009.5
1842.9 kPa	1009.5
1866.6 kPa	1009.7
1891.8 kPa	1009.5
1912.6 kPa	1009.6
1937.9 kPa	1009.6
1964.7 kPa	1009.5
1987.2 kPa	1009.6
2014.1 kPa	1009.7
2042.2 kPa	1009.7
2065.8 kPa	1009.6
2094.8 kPa	1009.6
2125.5 kPa	1009.8
2150.1 kPa	1009.9
2180.8 kPa	1009.8
2213.3 kPa	1009.7
2247.3 kPa	1009.8
2275.2 kPa	1009.8
2308 kPa	1009.8
2336.8 kPa	1009.9
2371.5 kPa	1009.8
2407 kPa	1009.9
2443.3 kPa	1009.9
2474.7 kPa	1010
2513.3 kPa	1010.1
2553.2 kPa	1010
2587.6 kPa	1010.1
2629.4 kPa	1010
2672.7 kPa	1009.9
2711.2 kPa	1010.3
2794.1 kPa	1010.3
2887.4 kPa	1010.4
2936.4 kPa	1010.4
2979.8 kPa	1010.4
3032.3 kPa	1010.4
3076.5 kPa	1010.5
3130.6 kPa	1010.4
3186.2 kPa	1010.6
3242.9 kPa	1010.6
3291.4 kPa	1010.7
3352.4 kPa	1010.6
3413.6 kPa	1010.6
3465.5 kPa	1010.7
3526.7 kPa	1010.8
3578 kPa	1010.8
3651.6 kPa	1011
3705.3 kPa	1011
3789.3 kPa	1010.9
3822.9 kPa	1011.1
3911.1 kPa	1011.1
3990.2 kPa	1011.2
4072.1 kPa	1011.2
4144 kPa	1011.3
4183.8 kPa	1011.4
4214.1 kPa	1011.4
4417.6 kPa	1011.4
4449.7 kPa	1011.6
4486.8 kPa	1011.6
4507.9 kPa	1011.5
4727.5 kPa	1011.7
5057.9 kPa	1012.1
5072.9 kPa	1012.3
5076 kPa	1012
5110.6 kPa	1012.1
5117 kPa	1012.1
5126.9 kPa	1012.1
5150.9 kPa	1012.2
5159.4 kPa	1012.3
5175.5 kPa	1012.1
5176 kPa	1012.2
5178.4 kPa	1012.2
5180.5 kPa	1012.1
5180.7 kPa	1012
5182.4 kPa	1012.2
5183.8 kPa	1012.3
5184.3 kPa	1012.1
5185 kPa	1012.1
5185.2 kPa	1012.1
5185.5 kPa	1012.2
5186.2 kPa	1012.2
5187.3 kPa	1012.1
5188.5 kPa	1012.1
5189 kPa	1012.2
5189.9 kPa	1012.3
5190.4 kPa	1012.1
5205.3 kPa	1012.2
5219.3 kPa	1012.2
5228.9 kPa	1012.3
5236 kPa	1012.2
5238.3 kPa	1012.3
5248 kPa	1012.2
5250.1 kPa	1012.2
5252.5 kPa	1012.2
5253.9 kPa	1012.3
5256.1 kPa	1012.2
5266.1 kPa	1012.1
5282.2 kPa	1012.2
5294.5 kPa	1012.3
5310.3 kPa	1012.2
5338.3 kPa	1012.2
5338.4 kPa	1012.1
5368.9 kPa	1012.1
5399.8 kPa	1012.4
5401.2 kPa	1012.4
5439.1 kPa	1012.3
5471.1 kPa	1012.4
5509.5 kPa	1012.4
5540.4 kPa	1012.4
5575.9 kPa	1012.5
5603.9 kPa	1012.4
5635.2 kPa	1012.6
5666.5 kPa	1012.5
5693.6 kPa	1012.5
5727 kPa	1012.6
5754.8 kPa	1012.6
5789.8 kPa	1012.7
5820.2 kPa	1012.7
5848.2 kPa	1012.7
5882.8 kPa	1012.5
5917.3 kPa	1012.8
5983 kPa	1012.8
6117.5 kPa	1013
6146.4 kPa	1012.8
6179.9 kPa	1012.9
6208.2 kPa	1012.9
6243.3 kPa	1013
6271.8 kPa	1012.9
6306.4 kPa	1012.9
6341.3 kPa	1013
6370.3 kPa	1013.1
6406.6 kPa	1013
6437.2 kPa	1013.1
6473.6 kPa	1013.1
6511 kPa	1013.2
6542.8 kPa	1013.3
6581.3 kPa	1013.2
6611.2 kPa	1013.2
6645.7 kPa	1013.4
6673.9 kPa	1013.3
6707.9 kPa	1013.3
6736.2 kPa	1013.4
6771.5 kPa	1013.3
6800.7 kPa	1013.3
6836.3 kPa	1013.4
6866 kPa	1013.4
6902.9 kPa	1013.4
6934 kPa	1013.6
6971 kPa	1013.5
7008.4 kPa	1013.5
7168 kPa	1013.6
7200.4 kPa	1013.7
7227.9 kPa	1013.7
7261.2 kPa	1013.7
7289.3 kPa	1013.8
7323.9 kPa	1013.9
7352.7 kPa	1013.8
7387.4 kPa	1014
7416.1 kPa	1013.9
7450.6 kPa	1013.8
7480.1 kPa	1014
7515.7 kPa	1014
7551.4 kPa	1013.9
7581.6 kPa	1013.9
7618.5 kPa	1014
7649.6 kPa	1014
7686.9 kPa	1014
7718.3 kPa	1014.2
7756.1 kPa	1014.1
7788.3 kPa	1014.2
7827 kPa	1014.2
7866.3 kPa	1014.2
7899.3 kPa	1014.2
7932.8 kPa	1014.4
7972.8 kPa	1014.4
8013.9 kPa	1014.3
8090.3 kPa	1014.4
8125.6 kPa	1014.5
8169.1 kPa	1014.4
8205.4 kPa	1014.5
8246 kPa	1014.4
8283.5 kPa	1014.5
8312 kPa	1014.5
8346.8 kPa	1014.6
8382.7 kPa	1014.7
8723.4 kPa	1014.9
8760.5 kPa	1014.7
8798.7 kPa	1014.8
8838.7 kPa	1014.9
8871 kPa	1015
8910.3 kPa	1015.2
8943.4 kPa	1015
9220.4 kPa	1015.3
9262.8 kPa	1015.3
9305.7 kPa	1015.3
9342.7 kPa	1015.3
9387.2 kPa	1015.4
9430.1 kPa	1015.4
9462.8 kPa	1015.5
9499 kPa	1015.3
9535.2 kPa	1015.5
9572.1 kPa	1015.6
9751.4 kPa	1015.7
9783.6 kPa	1015.7
10212 kPa	1016
10254 kPa	1016.1
10297 kPa	1016.1
10334 kPa	1015.9
10376 kPa	1016
10420 kPa	1016.1
10456 kPa	1016.3
10500 kPa	1016.3
10816 kPa	1016.5
10866 kPa	1016.5
10904 kPa	1016.5
11274 kPa	1016.8
11884 kPa	1017.2
11921 kPa	1017.2
11965 kPa	1017.2
12003 kPa	1017.3
12047 kPa	1017.3
12093 kPa	1017.5
12139 kPa	1017.3
12178 kPa	1017.4
12224 kPa	1017.5
12271 kPa	1017.5
12318 kPa	1017.5
14882 kPa	1019.5
14925 kPa	1019.6
14968 kPa	1019.5
15004 kPa	1019.4
15048 kPa	1019.5
15500 kPa	1019.8
15576 kPa	1019.8
17833 kPa	1021.6
19181 kPa	1022.6
19261 kPa	1022.5
22923 kPa	1025
23811 kPa	1025.7
23859 kPa	1025.7
23900 kPa	1025.7
23948 kPa	1025.8
23996 kPa	1025.8
24046 kPa	1025.8
25712 kPa	1027
25761 kPa	1026.9
25802 kPa	1027
25851 kPa	1027.1
25900 kPa	1027.1
25940 kPa	1027.1
25989 kPa	1027.1
26037 kPa	1027.1
26087 kPa	1027.3
26128 kPa	1027.2
26178 kPa	1027.4
26627 kPa	1027.5
26673 kPa	1027.6
26708 kPa	1027.6
26751 kPa	1027.6
26793 kPa	1027.7
26835 kPa	1027.8
26872 kPa	1027.7
26914 kPa	1027.8
